Columns and labels:
[1] = system: interferon stimulated genes (ISG15, DDX58 and IRF7); assay: interferon response / ISG expression by RNA-seq GSEA and qRT-PCR in patient-derived CRC cells; format: cell-based, human; details: transfection in wild-type and ADAR1-depleted cells, across time-points
Excerpt: H, Geneset Enrichment Analysis showing an enrichment of the geneset ‘Hallmark_Interferon_Alpha_Response’ in ADAR1^KD 5-AZA-treated cells compared to ADAR1^WT 5-AZA-CdR treated cells.
I, Interferon-responsive geneset enrichment score in mock-treated ADAR1^WT, 5-AZA-CdR-treated ADAR1^WT, mock-treated ADAR1^KD, and 5-AZA-CdR-treated ADAR1^KD conditions. Samples were collected 5, 14, and 24 days post-treatment.
B, Kinetics of interferon stimulated genes (ISG15, DDX58 and IRF7) relative expression in ADAR1^WT (Black) and ADAR1^KD (Gray) patient-derived colorectal cancer cells (CRCs) treated with 5-AZA-CdR analyzed by qRT-PCR. Data are mean±s.e.m. (n=3 from three independent experiments). *P<0.05, **P<0.01, ****P<0.0001, Sidak-corrected two-way ANOVA.
C, Interferon-responsive gene expression in ADAR1^WT mock-treated (MT), 5-AZA-CdR treated, ADAR1^KD NT and ADAR1^KD p(I:C) transfected samples collected 5 days, 14 days and 24 days post-treatment, measured by RNA-seq.
D, Kinetics of interferon stimulated genes (ISG15, DDX58 and IRF7) relative expression in ADAR1^WT (Black) and ADAR1^KD (Gray) patient-derived CRCs transfected with p(I:C), analyzed by qRT-PCR. Data are mean±s.e.m. **P<0.01, ****P<0.0001, Sidak-corrected two-way ANOVA.
F, Interferon stimulated genes (ISG15, DDX58 and IRF7) relative expression in CTRL (LUC) (Black) and ADAR1^p150CE (Gray) patient-derived CRCs treated with 5-AZA-CdR, analyzed by qRT-PCR. Data are mean±s.e.m. **P<0.01, ***P<0.001, Sidak-corrected two-way ANOVA.
G, IFN enrichment score in CTRL(LUC) Mock-treated, 5-AZA-CdR treated, ADAR1-p150 overexpressing NT and ADAR1-p150 overexpressing 5-AZA-CdR treated samples collected 5 days post-treatment and measured by RNA-seq.
Based on these findings, we hypothesized that ADAR1 depletion would synergize with the viral mimicry response induced by DNMTi treatment. To assess how ADAR1 depletion affects 5-AZA-CdR treated samples, we performed RNA-seq analyses in patient-derived CRC cells. […] As a molecular read-out of dsRNA pattern recognition activation, we measured MAVS aggregation in the mitochondrial fraction of cell lysates^34. […] Taken together, our findings establish that ADAR1 acts as a negative feedback loop, restricting the viral mimicry response induced by DNMTi treatment in cancer cells.

ADAR1 = assay: qPCR analysis of ADAR1 mRNA level and isoforms; format: cell-based, human; details: CRC cells transiently transfected, 100 ng/ml
Protocol: C, qPCR analysis of total ADAR1 mRNA level after treatment with 5-AZA-CdR (300 nM, for 5 days) or transfection with 100 ng ml-1 poly(I:C) over a course of 24 days. Cells were washed out at day 5 and seeded in drug-free medium. Data are mean±s.e.m.****P<0.0001, Sidak-corrected two-way ANOVA.
A, ADAR1 isoforms (p110 and p150) relative expression analysed by qPCR. LACZ denotes ADAR1WT; PIC denotes 100 ng/ml poly (I:C) for 5 days; AZA denotes 300 nM 5-AZA-CdR for 5 days). Data are mean±s.e.m. (n=3 from three independent experiments). ***P<0.001, ****P<0.0001, Tukey-corrected two-way ANOVA.
To test this hypothesis, we first determined if ADAR1 depletion affects dsRNA formation by IR-Alus in untreated patient-derived CRCs. We generated ADAR1 knock-down CRCs using two different hairpin RNAs (ADAR1^KDA/B) and confirmed depletion of both the constitutively expressed (p110) and interferon-inducible (p150) ADAR1 isoforms (FIG. 8A). […] To determine if MDA5 ligands also increase upon ADAR1 depletion, we performed the MDA5 protection assay followed by RNA-Seq, as above. […] Again, these immunogenic Alus were primarily IR-Alu pairs unidirectionally transcribed in either the sense (+/+) or antisense (−/−) direction and induced upon ADAR1 depletion (FIG. 9C-J).
Next, we tested whether epigenetic therapy can induce and activate ADAR1 editing activity.

Substance: Poly(I:C)
- activation of ISGs [1]: comparable activation of ISGs across time-points
- interferon-inducible isoform of ADAR1 (p150) expression (ADAR1): acute up-regulation
